Assay type: physicochemical
Settings: pH 7.4
Experimental: The ORC-active agent combinations of example 2 and 3 can be suspended in neutral buffers at pH 7.4 at 37° C. to simulate body conditions for the purpose of studying the release of the drug in the buffer (in vitro). The test samples released Marcaine in the buffer while degrading. The ORC matrix is expected to degrade completely in 3-5 days if needed, degradation can be accelerated (terminal samples) by adding sodium bicarbonate base to the buffer solution. More particularly, for example, water bath is pre-heated to 37° C. Test samples of the ORC-Marcaine are cut into small pieces and the samples (in the range of 0.05g-01 g) are weighed and placed in labeled vials. The desired amount of buffer (e.g., 100, 50, 25 or 10 times, by weight, of the test sample) is added. For terminal samples, sufficient sodium bicarbonate is added to make a 0.15 M solution. The vials are placed in the pre-heated water bath for the desired period of time (approximately 10 min-120 hours).

oxidized regenerated cellulose [ORC matrix]
time to complete degradation: 3 to 5 days
